{"source": "patent US7722863B2", "about": "“Use of granzyme b as an hsp70/hsp70 peptide dependent inducer of apoptosis in tumor cells” (Multimmune GmbH, priority 2002, dated 2010)", "key": {"[1]": {"system": "Hsp70 membrane-positive CX+ tumor subline", "assay": "Cell surface binding and uptake of granzyme B (fluorescence microscopy, flow cytometry)", "assay_type": "cell-based, human"}, "[2]": {"molecular_target": "T1, recombinant human Hsp70-protein (Homo sapiens, UniProt P0DMV8)", "T1 construct": "purchased Stressgen", "T1 sequence (P0DMV8 whole entry)": "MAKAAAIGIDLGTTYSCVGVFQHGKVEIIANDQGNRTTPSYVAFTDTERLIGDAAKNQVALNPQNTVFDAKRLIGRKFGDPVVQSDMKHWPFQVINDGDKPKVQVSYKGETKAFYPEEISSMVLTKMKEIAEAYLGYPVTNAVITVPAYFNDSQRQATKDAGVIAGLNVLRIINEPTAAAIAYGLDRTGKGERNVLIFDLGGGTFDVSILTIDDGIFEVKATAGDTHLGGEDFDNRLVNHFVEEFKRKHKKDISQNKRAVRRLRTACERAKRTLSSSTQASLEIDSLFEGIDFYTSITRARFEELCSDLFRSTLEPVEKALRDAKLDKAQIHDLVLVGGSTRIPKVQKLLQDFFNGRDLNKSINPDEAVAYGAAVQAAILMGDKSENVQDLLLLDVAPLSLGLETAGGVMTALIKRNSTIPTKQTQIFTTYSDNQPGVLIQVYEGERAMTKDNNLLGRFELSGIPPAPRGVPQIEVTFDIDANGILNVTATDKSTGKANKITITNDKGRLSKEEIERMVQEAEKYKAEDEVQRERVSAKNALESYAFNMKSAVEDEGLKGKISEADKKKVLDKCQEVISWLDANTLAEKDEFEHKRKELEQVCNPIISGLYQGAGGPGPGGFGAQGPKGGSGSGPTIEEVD", "assay": "Affinity chromatography of YT cell lysate, Western blot of eluates", "assay_type": "binding", "conditions": "Western blot with mAb 2C5, fraction F3", "protocol": "(§1) Bovine serum albumine (BSA, 1 mg/ml, Sigma-Aldrich, Steinheim, Germany), 1 mg/ml lyophylized, recombinant human Hsp70-protein (Stressgen, British Columbia, Canada) or 2 mg/mi Hsp70-peptide TKD (TKDNNLLGRFELSG (SEO ID NO:1), aa450-463, Bachem, Bubendorf, Switzerland) were incubated with equilibrated AminoLink agarose beads (Pierce, Rockford, USA) in 2 ml for 6 h, together with the reductant NaCNBH3. Binding capacity of BSA, Hsp70-protein and Hsp70-peptide TKD was greater 95%. Following removal of uncoupled material by extensive washing with Tris-buffer and quenching of non-reactive groups, cell lysates were administered to the BSA, Hsp70-protein and Hsp70-peptide TKD conjugated columns for 1 h.\n(§2) After washing with 10 column volumes of 20 mM Tris buffer, bound proteins were eluted with 3 M sodium chloride in 20 mM Tris buffer, in 5 fractions. Each fraction was subjected to a 10% SDS-PAGE and blotted to PVDF membranes.\n(§3) Following blocking in skim-milk (0.1%) and incubation with mAb directed against granzyme B 2C5 (IgG2a, Becton Dickinson, Heidelberg, Germany), at 4° C., for 5 h, Western blots were washed and incubated with a secondary mouse anti-IgG HRP Ab (Dianova, Hamburg, Germany), for 1 h. Proteins were detected using the ECL kit (Amersham Bioscience) for 5 sec. […]"}, "Hsp70-peptide TKD": {"molecular_target": "T2, Hsp70-peptide TKD (Homo sapiens, UniProt P0DMV8)", "T2 construct": "Hsp70-peptide TKD (TKDNNLLGRFELSG (SEO ID NO:1), aa450-463, Bachem, Bubendorf, Switzerland); purchased Bachem", "assay": "Affinity chromatography of YT cell lysate, Western blot of eluates", "assay_type": "binding", "conditions": "Western blot with mAb 2C5, fraction F3", "protocol": "as §1, §2, §3"}}, "data": [{"substance": "granzyme B", "values": [{"measurement": "granzyme B uptake, flow cytometry of permeabilized cells", "setting": "[1]; 1 μg/ml granzyme B, 30 min, 37° C.", "result": "faint shift of the granzyme B peak to the right"}, {"measurement": "granzyme B uptake, flow cytometry of permeabilized cells", "setting": "[1]; 2 μg/ml and 4 μg/ml granzyme B", "result": "dose-dependent increase in granzyme B uptake"}, {"measurement": "granzyme B cell surface binding (immunofluorescence)", "setting": "[1]; 15 min at 4° C., granzyme B 2 μg/ml", "result": "typical cell surface staining, was detected"}, {"measurement": "granzyme B uptake, cytoplasmic staining (immunofluorescence)", "setting": "[1]; temperature shift 4° C. to 37° C., 30 min", "result": "resulted in uptake of granzyme B"}, {"measurement": "granzyme B in YT cell eluates from Hsp70-protein column", "setting": "[2]", "result": "dominant 32 kDa granzyme B protein band"}, {"measurement": "granzyme B in YT cell eluates from Hsp70-peptide (TKD) column", "setting": "Hsp70-peptide TKD", "result": "dominant 32 kDa granzyme B protein band"}]}]}
